According to patent US5081284A, “Proteinase inhibitor” (Suntory Limited, priority 1989, dated 1992):
pIC50: −log10 of the molar value. Read-outs that look alike come from different tables or passages of the source.

Tests used:
[1] = biological target: T1, calpain I (Homo sapiens, UniProt P07384); assay: Anti-calpain activity, calpain I (casein hydrolysis, Ross-Schatz method); type: biochemical
T1 sequence (P07384 1-714): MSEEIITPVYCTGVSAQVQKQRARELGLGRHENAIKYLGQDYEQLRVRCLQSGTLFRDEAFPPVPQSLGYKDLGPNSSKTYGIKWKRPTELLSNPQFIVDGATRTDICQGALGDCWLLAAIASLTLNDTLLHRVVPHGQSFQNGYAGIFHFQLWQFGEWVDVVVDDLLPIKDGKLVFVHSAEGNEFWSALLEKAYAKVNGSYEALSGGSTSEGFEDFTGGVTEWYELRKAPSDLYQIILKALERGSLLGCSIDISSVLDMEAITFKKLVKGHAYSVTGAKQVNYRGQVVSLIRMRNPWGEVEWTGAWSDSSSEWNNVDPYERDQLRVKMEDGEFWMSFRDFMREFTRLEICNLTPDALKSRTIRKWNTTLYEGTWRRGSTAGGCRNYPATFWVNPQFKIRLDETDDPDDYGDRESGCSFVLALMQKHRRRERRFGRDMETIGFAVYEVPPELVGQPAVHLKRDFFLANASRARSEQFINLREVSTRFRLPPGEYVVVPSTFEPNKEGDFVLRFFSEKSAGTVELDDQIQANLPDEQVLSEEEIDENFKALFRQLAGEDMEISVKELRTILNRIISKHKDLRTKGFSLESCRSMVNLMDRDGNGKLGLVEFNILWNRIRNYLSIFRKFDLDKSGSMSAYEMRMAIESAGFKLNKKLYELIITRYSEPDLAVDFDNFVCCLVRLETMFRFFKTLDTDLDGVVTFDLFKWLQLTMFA
T1 sequence (P04632 1-268 partner): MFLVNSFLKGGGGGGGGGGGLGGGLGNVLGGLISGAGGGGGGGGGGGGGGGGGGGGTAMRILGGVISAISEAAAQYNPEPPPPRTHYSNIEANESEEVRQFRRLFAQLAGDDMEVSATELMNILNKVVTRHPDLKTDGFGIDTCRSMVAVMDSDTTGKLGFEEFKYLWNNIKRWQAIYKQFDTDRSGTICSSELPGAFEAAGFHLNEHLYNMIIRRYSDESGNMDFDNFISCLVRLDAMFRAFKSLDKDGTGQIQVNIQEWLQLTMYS

[2] = biological target: cathepsin B (Bos taurus, UniProt P07688); assay: Anti-cathepsin activity (cathepsin B, benzyloxycarbonyl-L-lysine-p-nitrophenyl ester substrate); type: biochemical, bovine
Method: A mixture of a test compound of the present invention and an acetate buffer solution (25 mM, pH=5.1, with 1 mM EDTA, 3.15 ml) containing a substrate (benzyloxycarbonyl-L-lysine-p-nitrophenyl ester, 0.114 mg) was preincubated at 30° C. for 1 minute. To the mixture, a solution (0.05 ml) of cathepsin B (derived from bovine spleen; product of Sigma; 0.05 units) in the acetate buffer was added to start the reaction. Immediately after the start of reaction, the change in absorbance at 326 nm was measured and the inhibitory activity of the test compound was determined by comparison with the control solution.

[3] = biological target: T2, papain (Carica papaya, UniProt P00784); assay: Anti-papain activity (casein hydrolysis, Lowry-Folin method); type: biochemical
T2 sequence (P00784 134-345): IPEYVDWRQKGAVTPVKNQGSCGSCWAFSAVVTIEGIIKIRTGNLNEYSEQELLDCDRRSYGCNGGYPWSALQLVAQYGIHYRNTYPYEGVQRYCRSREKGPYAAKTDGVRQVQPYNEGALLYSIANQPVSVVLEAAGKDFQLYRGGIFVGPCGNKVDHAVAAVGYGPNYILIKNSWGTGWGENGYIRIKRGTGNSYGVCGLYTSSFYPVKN
Method: (§1) A mixture of a test compound of the present invention, papain (0.015 units) and a citrate buffer solution (20 mM, pH=6.2,1 ml) containing EDTA (0.88 mg) was preincubated at 30° C. for 5 minutes and a substrate solution (1 ml) was added to start the reaction. The substrate was a 1% solution of casein in the citrate buffer. The reaction was performed at 30° C. for 20 minutes. The reaction was quenched by adding 6.5% trichloroacetic acid (3 ml) to the reaction solution. The amount of casein that had been hydrolyzed enzymatically in the trichloroacetic acid soluble fraction was measured by the Lowry-Folin method and the inhibitory activity of the test compound was determined by comparison with the control solution.
as §1, with “pH=6.2, 1” for “pH=6.2,1”

[4] = biological target: T3, calpain II (Homo sapiens, UniProt P17655); assay: Anti-calpain activity, calpain II (casein hydrolysis, Ross-Schatz method); type: biochemical
T3 sequence (P17655 1-700): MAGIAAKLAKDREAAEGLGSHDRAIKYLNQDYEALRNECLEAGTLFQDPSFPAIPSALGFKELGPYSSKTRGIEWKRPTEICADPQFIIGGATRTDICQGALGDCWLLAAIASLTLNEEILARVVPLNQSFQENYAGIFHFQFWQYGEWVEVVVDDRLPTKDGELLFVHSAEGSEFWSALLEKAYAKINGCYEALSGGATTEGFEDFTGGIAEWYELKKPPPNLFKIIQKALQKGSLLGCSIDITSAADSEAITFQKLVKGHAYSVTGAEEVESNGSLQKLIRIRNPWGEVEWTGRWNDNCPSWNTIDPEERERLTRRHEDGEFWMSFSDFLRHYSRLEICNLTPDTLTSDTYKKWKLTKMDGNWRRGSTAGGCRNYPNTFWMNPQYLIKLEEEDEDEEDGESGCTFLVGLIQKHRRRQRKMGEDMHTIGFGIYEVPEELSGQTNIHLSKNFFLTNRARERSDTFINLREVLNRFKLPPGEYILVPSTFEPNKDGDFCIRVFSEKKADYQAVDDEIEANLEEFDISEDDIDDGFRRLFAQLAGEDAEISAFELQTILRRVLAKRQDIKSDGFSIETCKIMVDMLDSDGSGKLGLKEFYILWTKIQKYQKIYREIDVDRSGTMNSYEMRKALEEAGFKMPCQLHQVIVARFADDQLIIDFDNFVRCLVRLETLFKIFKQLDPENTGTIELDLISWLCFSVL
T3 sequence (P04632 1-268 partner): T1 sequence (P04632 1-268 partner)

[5] = Table 6 (Example 29), pH 7.5, 30° C., 30 minutes, casein, read-out: Inhibitory activity toward calpain I, IC50
[6] = Table 8 (Example 29), pH 5.1, 30° C., from bovine spleen, read-out: Inhibitory activity toward cathepsin B, IC50
[7] = Table 5 (Example 29), pH 6.2, 30° C., 20 minutes, casein, read-out: Inhibitory activity toward papain, IC50
[8] = Table 7 (Example 29), pH 7.5, 30° C., 30 minutes, casein, read-out: Inhibitory activity toward calpain II, IC50

CCCC[C@@H](C=O)NC(=O)[C@H](CC(C)C)NC(=O)OCc1ccc([N+](=O)[O-])cc1 [Example 8, N-(p-nitrobenzyloxycarbonyl)-L-leucyl-L-norleucinal]
pIC50 [1, 5]: 7.04 | pIC50 [2, 6]: 7.00 | pIC50 [3, 7]: 7.51 | pIC50 [4, 8]: 6.89

CCCC[C@@H](C=O)NC(=O)[C@H](CC(C)C)NC(=O)OC(C)(C)C [Example 4, N-(t-butyloxycarbonyl)-L-leucyl-L-norleucinal]
pIC50 [1, 5]: 7.52 | pIC50 [2, 6]: 7.24 | pIC50 [4, 8]: 6.92

CCCC[C@@H](C=O)NC(=O)[C@H](CC(C)C)NP(=S)(c1ccccc1)c1ccccc1 [Example 14, N-diphenylphosphonothioyl-L-leucyl-L-norleucinal]
pIC50 [1]: 7.05 | pIC50 [2]: 7.10 | pIC50 [3]: 6.77 | pIC50 [4]: 6.92

CCCC[C@@H](C=O)NC(=O)[C@H](CC(C)C)NC(=O)OCc1ccc(Cl)cc1 [Example 6, N-(p-chlorobenzyloxycarbonyl)-L-leucyl-L-norleucinal]
pIC50 [1, 5]: 7.06 | pIC50 [2, 6]: 7.15 | pIC50 [3, 7]: 7.24 | pIC50 [4, 8]: 6.89

CCCC[C@@H](C=O)NC(=O)[C@H](CC(C)C)NC(=O)OCc1ccccc1Cl [Example 9, N-(o-chlorobenzyloxycarbonyl)-L-leucyl-L-norleucinal]
pIC50 [1, 5]: 6.96 | pIC50 [2, 6]: 6.85 | pIC50 [3, 7]: 6.80 | pIC50 [4, 8]: 6.89

CCCC[C@@H](C=O)NC(=O)[C@H](CC(C)C)NC(=O)CC(C)C [Example 3, N-isovaleryl-L-leucyl-L-norleucinal]
pIC50 [1, 5]: 7.00 | pIC50 [2, 6]: 6.29 | pIC50 [3, 7]: 6.92 | pIC50 [4, 8]: 6.89

CCCC[C@@H](C=O)NC(=O)[C@H](CC(C)C)NC(=O)OCc1ccc(OC)cc1 [Example 7, N-(p-methoxybenzyloxycarbonyl)-L-leucyl-L-norleucinal]
pIC50 [1, 5]: 7.00 | pIC50 [2, 6]: 6.82 | pIC50 [3, 7]: 6.60 | pIC50 [4, 8]: 6.89

CCCC[C@@H](C=O)NC(=O)[C@H](CC(C)C)NC(=O)OCC(Cl)(Cl)Cl [Example 10, N-(2,2,2-trichloroethyloxycarbonyl)-L-leucyl-L-norleucinal]
pIC50 [1, 5]: 7.02 | pIC50 [2, 6]: 6.48 | pIC50 [3, 7]: 6.59
